{"source": "patent US20220008495A1", "about": "“APPLICATION OF PHLEGMYHEATCLEAR IN PREPARATION OF DRUG FOR TREATMENT OF ACUTE EXACERBATION OF CHRONIC OBSTRUCTIVE PULMONARY DISEASE” (SHANGHAI KAIBAO PHARMACEUTICAL CO., LTD., priority 2020, published 2022)", "assay_type_in_all_cases": "in vivo, SD rats", "key": {"[1]": {"test_system": "model of rats with acute exacerbation of chronic obstructive pulmonary disease", "assay": "Pathological examination of lung tissue (HE staining; MLI, MAN, bronchial wall thickness)", "conditions": "dexamethasone 0.23 mg/kg/d gavage 7 days; x±SD, n=8", "description": "The administration was started from the 2nd day of the 13th week. The same volume of purified water (10 ml/kg/d) was administered intragastrically to rats in the blank control group and the model control group, and the other groups were received high dose of phlegmyheatclear, middle dose of phlegmyheatclear, low dose of phlegmyheatclear, and dexamethasone once a day. All the rats were fasted within 12 hours before sampling of blood, however, the rats were allowed to free access to water. […] Then the rats were anesthetized by intraperitoneal injection of 10% 1.0 ml/100 g urethane. Exposed tracheal intubation was performed. […] The rat trachea and the whole lung were taken out by thoracotomy. […]"}, "[2]": {"test_system": "model of rats with acute exacerbation of chronic obstructive pulmonary disease", "assay": "Lung functions (animal pulmonary function test system)", "conditions": "dexamethasone 0.23 mg/kg/d gavage 7 days; x±SD, n=6-12", "source_text": "(§1) The rats were allowed to acclimate to their surroundings for 7 days since purchased from the specific company. The rats were fed sterilized feed and allowed to free access to sterilized water. Operators regularly checked purification and water and electricity operating system to keep a quite environment. 14 rats were selected to fall into a blank control group, and the remaining rats were subjected to cigarette smoking and repeatedly infected with Klebsiella pneumoniae (KP) to establish chronic obstructive pulmonary disease (COPD) stable-phase model of rats. The method comprises the steps of: light a cigarette, making smoke concentration reach 3000±500 ppm, twice a day. The rats took a rest for at least 3 hours between the two times of being exposed to cigarette smoking, lasting for a total of 12 weeks. From 1 to 8 weeks, model of rats were instilled KP suspension (6×10^8 CFU/ml) 0.1 ml through the nasal cavity every 5 days. Instillation via the nasal cavity: a sterilized 1 ml syringe was used to draw 0.1 ml of KP suspension; the KP suspension was instilled into the rats when the rats were breathing in, and the instillation process was done in either the left and right nostrils in an alternating way. Lipopolysaccharide (LPS) 2 mg/kg was instilled into the trachea on the first day of the 13th week to establish model of rats with acute exacerbation of chronic obstructive pulmonary disease. After successful modeling, the model of rats were randomly divided into five groups, including a model control group, a high dose of phlegmyheatclear group, a middle dose of phlegmyheatclear group, a low dose of phlegmyheatclear group, and a dexamethasone group, with 12 rats in each group.\nThe administration was started from the 2nd day of the 13th week. The same volume of purified water (10 ml/kg/d) was administered intragastrically to rats in the blank control group and the model control group, and the other groups were received high dose of phlegmyheatclear, middle dose of phlegmyheatclear, low dose of phlegmyheatclear, and dexamethasone once a day. All the rats were fasted within 12 hours before sampling of blood, however, the rats were allowed to free access to water. Blood samples were collected from caudal vein for CBC. Then the rats were anesthetized by intraperitoneal injection of 10% 1.0 ml/100 g urethane. Exposed tracheal intubation was performed. Changes of the pulmonary functions of the rats were detected by using an animal pulmonary function test system (PET). Blood was collected from the abdominal aorta, and the collected blood was placed for 2 hours and centrifuged to obtain the blood serum to detect the levels of inflammatory factors IL-6, IL-10, CRP and SAA. The rat trachea and the whole lung were taken out by thoracotomy. The right main bronchus was ligated, and the left bronchoalveolar lavage fluid (BALF) was drawn out to detect the level of inflammatory factor TNF-α; the left lung was perfused with 4% paraformaldehyde for 1 hour, and the left lung was directly fixed in the 4% paraformaldehyde for pathological examination.\nBefore sampling, the rats were anesthetized by intraperitoneal injection of 10% 1.0 ml/100 g urethane. Exposed tracheal intubation was performed. Relevant parameters of each rat were detected by using an animal pulmonary function test system (PET), wherein the parameters include forced vital capacity (FVC), forced expiratory volume at 0.1 s (FEV0.1), forced expiratory volume at 0.3 s (FEV0.3), maximum expiratory flow rate (PEF), mid-maximum expiratory flow (MMEF), functional residual capacity (FRC), and other parameters, changes in lung function (x±SD) of rats in each group are shown in Table 3."}, "[3]": {"test_system": "model of rats with acute exacerbation of chronic obstructive pulmonary disease", "assay": "Complete blood count (peripheral blood inflammatory cells)", "conditions": "dexamethasone 0.23 mg/kg/d gavage 7 days, x±SD", "source_text": "as §1\nThe administration was started from the 2nd day of the 13th week. The same volume of purified water (10 ml/kg/d) was administered intragastrically to rats in the blank control group and the model control group, and the other groups were received high dose of phlegmyheatclear, middle dose of phlegmyheatclear, low dose of phlegmyheatclear, and dexamethasone once a day. All the rats were fasted within 12 hours before sampling of blood, however, the rats were allowed to free access to water. Blood samples were collected from caudal vein for CBC. Then the rats were anesthetized by intraperitoneal injection of 10% 1.0 ml/100 g urethane. Exposed tracheal intubation was performed. Changes of the pulmonary functions of the rats were detected by using an animal pulmonary function test system (PET). […]\nBlood samples were collected from caudal vein for CBC, the following items were counted: the white blood cell count (WBC), the ratio of neutrophils (NEU %), the percentage of lymphocytes (% LYMPH) and the percentage of mononuclear cells (% MONO)."}, "[4]": {"test_system": "model of rats with acute exacerbation of chronic obstructive pulmonary disease", "assay": "Determination of serum CRP and SAA levels (ELISA)", "conditions": "dexamethasone 0.23 mg/kg/d gavage 7 days, x±SD, n=9-12", "source_text": "as §1, with “Lipopolysaccharide (LPS) 2 mg/kg was instilled into the trachea on the first day of the 13th week to establish model of rats with acute exacerbation of chronic obstructive pulmonary disease. After successful modeling, the model of rats were randomly divided into five groups, including a model control group, a high dose of phlegmyheatclear group, a middle dose of phlegmyheatclear group, a low dose of phlegmyheatclear group, and a dexamethasone group, with 12 rats in each group.” left out\nThe administration was started from the 2nd day of the 13th week. […] Changes of the pulmonary functions of the rats were detected by using an animal pulmonary function test system (PET). […]"}, "[5]": {"test_system": "model of rats with acute exacerbation of chronic obstructive pulmonary disease", "assay": "Determination of IL-6, IL-10 in serum and TNF-α in alveolar lavage fluid (ELISA)", "conditions": "dexamethasone 0.23 mg/kg/d gavage 7 days, n=10-12", "description": "The administration was started from the 2nd day of the 13th week. The same volume of purified water (10 ml/kg/d) was administered intragastrically to rats in the blank control group and the model control group, and the other groups were received high dose of phlegmyheatclear, middle dose of phlegmyheatclear, low dose of phlegmyheatclear, and dexamethasone once a day. All the rats were fasted within 12 hours before sampling of blood, however, the rats were allowed to free access to water. […] Then the rats were anesthetized by intraperitoneal injection of 10% 1.0 ml/100 g urethane. Exposed tracheal intubation was performed. […]"}}, "note": "Marks after values point to notes of the source that are not given here.", "data": [{"smiles": "C[C@@H]1C[C@H]2[C@@H]3CCC4=CC(=O)C=C[C@]4(C)[C@@]3(F)[C@@H](O)C[C@]2(C)[C@@]1(O)C(=O)CO", "note": "[Dexamethasone, dexamethasone]", "values": [{"measurement": "MAN (mean alveolar numbers)", "setting": "[1]", "value": "330.49 ± 77.29 ↑/mm^2"}, {"measurement": "MLI (mean linear intercept)", "setting": "[1]", "value": "47.24 ± 5.78", "unit": "μm"}, {"measurement": "Wt (bronchial wall thickness)", "setting": "[1]", "value": "16.6 ± 4.01", "unit": "µm"}, {"measurement": "FEV0.1 (forced expiratory volume at 0.1 s)", "setting": "[2]", "value": "5.31 ± 2.90", "unit": "mL"}, {"measurement": "FEV0.3 (forced expiratory volume at 0.3 s)", "setting": "[2]", "value": "15.06 ± 2.84 ^b mL"}, {"measurement": "FRC (functional residual capacity)", "setting": "[2]", "value": "4.37 ± 1.48", "unit": "mL"}, {"measurement": "FVC (forced vital capacity)", "setting": "[2]", "value": "16.33 ± 2.01^bb mL"}, {"measurement": "MMEF (mid-maximum expiratory flow)", "setting": "[2]", "value": "78.6 ± 29.1", "unit": "mL/s"}, {"measurement": "PEF (maximum expiratory flow rate)", "setting": "[2]", "value": "81.57 ± 29.43", "unit": "mL/S"}, {"measurement": "LYM (percentage of lymphocytes)", "setting": "[3]", "value": "82.15 ± 15.32", "unit": "%"}, {"measurement": "MONO (percentage of mononuclear cells)", "setting": "[3]", "value": "0.61 ± 0.25^b %"}, {"measurement": "NEU (ratio of neutrophils)", "setting": "[3]", "value": "16.57 ± 14.99", "unit": "%"}, {"measurement": "WBC (white blood cell count)", "setting": "[3]", "value": "3.80 ± 1.53^bb *10^9/L"}, {"measurement": "CRP", "setting": "[4]", "value": "3420.23 ± 1254.10^bb ng/mL"}, {"measurement": "SAA", "setting": "[4]", "value": "19.18 ± 6.18^bb μg/mL"}, {"measurement": "TNF-α", "setting": "[5]; alveolar lavage fluid (BALF)", "value": "325.52 ± 49.51^bb pg/mL"}, {"measurement": "IL-6", "setting": "[5]; serum", "value": "507.54 ± 185.62^bb pg/mL"}, {"measurement": "IL-10", "setting": "[5]; serum", "value": "40.65 ± 6.31 ^ pg/mL"}]}]}
